# Assay results from patent publication US10233173B2, “Substituted 1,2,3-triazoles as NR2B-selective NMDA modulators” (JANSSEN PHARMACEUTICA NV, priority 2016, dated 2019).
# Target: human GluN1/GluN2B NMDA receptors (Homo sapiens, UniProt Q05586+Q13224)
# Assay: Cell-based calcium flux (FLIPR) assay on cloned human NR1/NR2B ion channels expressed in mammalian cells
# Details: standard assay; human GluN1/GluN2B, calcium flux (FLIPR), glutamate ~EC80
# Outline: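 Calcium influx followed by FLIPR fluorescence after 5 min compound exposure and a further 5 min co-agonist challenge: 10 μM glycine with glutamate at ~EC80 (standard) or EC40 (HTS).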
# human GluN1/GluN2B NMDA receptors, sequence (Q13224 27-1484, other chains not shown): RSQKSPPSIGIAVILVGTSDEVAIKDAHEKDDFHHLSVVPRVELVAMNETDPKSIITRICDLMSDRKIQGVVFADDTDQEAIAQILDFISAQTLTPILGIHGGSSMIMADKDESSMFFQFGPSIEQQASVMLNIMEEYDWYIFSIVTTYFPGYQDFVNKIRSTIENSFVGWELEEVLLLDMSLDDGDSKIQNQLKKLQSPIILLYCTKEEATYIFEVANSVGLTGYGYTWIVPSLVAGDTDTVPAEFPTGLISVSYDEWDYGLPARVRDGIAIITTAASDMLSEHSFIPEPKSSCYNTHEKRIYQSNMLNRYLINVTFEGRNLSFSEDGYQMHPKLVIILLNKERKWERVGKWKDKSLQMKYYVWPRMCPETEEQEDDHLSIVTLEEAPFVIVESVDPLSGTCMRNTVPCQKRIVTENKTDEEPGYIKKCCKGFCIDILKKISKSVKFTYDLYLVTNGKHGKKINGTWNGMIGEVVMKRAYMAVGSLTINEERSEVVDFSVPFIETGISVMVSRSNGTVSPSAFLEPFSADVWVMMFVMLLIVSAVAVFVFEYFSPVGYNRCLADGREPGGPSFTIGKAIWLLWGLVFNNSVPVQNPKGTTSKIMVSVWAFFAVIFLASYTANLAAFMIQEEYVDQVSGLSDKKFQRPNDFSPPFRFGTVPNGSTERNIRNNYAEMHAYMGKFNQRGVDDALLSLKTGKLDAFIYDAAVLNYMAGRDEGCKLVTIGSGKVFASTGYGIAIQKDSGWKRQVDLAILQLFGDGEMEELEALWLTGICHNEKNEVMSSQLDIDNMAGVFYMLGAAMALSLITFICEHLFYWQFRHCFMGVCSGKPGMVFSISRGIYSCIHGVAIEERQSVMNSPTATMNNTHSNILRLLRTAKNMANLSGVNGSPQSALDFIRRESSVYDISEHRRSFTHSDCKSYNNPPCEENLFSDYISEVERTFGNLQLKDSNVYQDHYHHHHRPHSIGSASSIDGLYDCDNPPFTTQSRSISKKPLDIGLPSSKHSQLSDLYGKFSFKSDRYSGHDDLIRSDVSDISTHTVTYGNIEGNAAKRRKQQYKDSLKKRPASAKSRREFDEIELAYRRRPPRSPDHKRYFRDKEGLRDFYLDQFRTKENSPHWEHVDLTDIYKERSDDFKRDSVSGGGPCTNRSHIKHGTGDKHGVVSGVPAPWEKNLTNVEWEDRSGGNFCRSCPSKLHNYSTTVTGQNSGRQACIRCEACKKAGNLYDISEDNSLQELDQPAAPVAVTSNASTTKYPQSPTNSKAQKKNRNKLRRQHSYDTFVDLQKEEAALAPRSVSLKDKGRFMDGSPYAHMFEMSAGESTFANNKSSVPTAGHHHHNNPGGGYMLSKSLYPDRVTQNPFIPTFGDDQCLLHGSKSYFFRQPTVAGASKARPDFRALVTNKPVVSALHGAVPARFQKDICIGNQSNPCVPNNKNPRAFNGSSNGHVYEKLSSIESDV
row,SMILES,IC50 [µM]
1,"Cn1ccc(NCc2cn(-c3ccc(F)c(OC(F)F)c3)nn2)n1 [Example 101, N-[[1-[3-(Difluoromethoxy)-4-fluoro-phenyl]triazol-4-yl]methyl]-1-methyl-pyrazol-3-amine]",0.374
2,"Cn1cc(NCc2cn(-c3ccc(F)c(OC(F)F)c3)nn2)cn1 [Example 102, N-[[1-[3-(Difluoromethoxy)-4-fluoro-phenyl]triazol-4-yl]methyl]-1-methyl-pyrazol-4-amine]",3.25
3,"COc1ncccc1OCc1cn(-c2ccc(Cl)c(OC(F)F)c2)nn1 [Example 103, 3-[[1-[4-Chloro-3-(difluoromethoxy)phenyl]triazol-4-yl]methoxy]-2-methoxy-pyridine]",0.064
4,"Cc1ccc(OCc2cn(-c3ccc(Cl)c(OC(F)F)c3)nn2)cn1 [Example 104, 5-[[1-[4-Chloro-3-(difluoromethoxy)phenyl]triazol-4-yl]methoxy]-2-methyl-pyridine]",0.729
5,"FC(F)Oc1cc(-n2cc(COc3ncccc3Cl)nn2)ccc1Cl [Example 105, 3-Chloro-2-[[1-[4-chloro-3-(difluoromethoxy)phenyl]triazol-4-yl]methoxy]pyridine]",0.059
6,"COc1cc(Cl)cnc1OCc1cn(-c2ccc(Cl)c(OC(F)F)c2)nn1 [Example 106, 5-Chloro-2-[[1-[4-chloro-3-(difluoromethoxy)phenyl]triazol-4-yl]methoxy]-3-methoxy-pyridine]",0.276
7,"Fc1cccnc1OCc1cn(-c2ccc(Cl)c(OC(F)F)c2)nn1 [Example 107, 2-[[1-[4-Chloro-3-(difluoromethoxy)phenyl]triazol-4-yl]methoxy]-3-fluoro-pyridine]",0.119
8,"COc1cccnc1OCc1cn(-c2ccc(Cl)c(OC(F)F)c2)nn1 [Example 108, 2-[[1-[4-Chloro-3-(difluoromethoxy)phenyl]triazol-4-yl]methoxy]-3-methoxy-pyridine]",0.114
9,"FC(F)c1cc(-n2cc(CNc3ncccn3)nn2)ccc1Cl [Example 109, N-[[1-[4-Chloro-3-(difluoromethyl)phenyl]triazol-4-yl]methyl]pyrimidin-2-amine]",1.26
10,"FC(F)c1cc(-n2cc(CNc3ccncn3)nn2)ccc1Cl [Example 110, N-[[1-[4-Chloro-3-(difluoromethyl)phenyl]triazol-4-yl]methyl]pyrimidin-4-amine]",7.57
11,"Fc1ccc(-n2cc(COc3ccccn3)nn2)cc1C(F)F [Example 111, 2-[[1-[3-(Difluoromethyl)-4-fluoro-phenyl]triazol-4-yl]methoxy]pyridine]",0.684
12,"Fc1ccc(-n2cc(COc3ccc(Cl)cn3)nn2)cc1C(F)F [Example 112, 5-Chloro-2-[[1-[3-(difluoromethyl)-4-fluoro-phenyl]triazol-4-yl]methoxy]pyridine]",0.056
13,"Cc1cccc(OCc2cn(-c3ccc(F)c(C(F)F)c3)nn2)n1 [Example 113, 2-[[1-[3-(Difluoromethyl)-4-fluoro-phenyl]triazol-4-yl]methoxy]-6-methyl-pyridine]",0.038
14,"Cc1ccc(OCc2cn(-c3ccc(F)c(C(F)F)c3)nn2)nc1 [Example 114, 2-[[1-[3-(Difluoromethyl)-4-fluoro-phenyl]triazol-4-yl]methoxy]-5-methyl-pyridine]",0.021
15,"Cc1ccnc(OCc2cn(-c3ccc(F)c(C(F)F)c3)nn2)c1 [Example 115, 2-[[1-[3-(Difluoromethyl)-4-fluoro-phenyl]triazol-4-yl]methoxy]-4-methyl-pyridine]",0.17
16,"Cc1ccnc(OCc2cn(-c3ccc(F)c(OC(F)F)c3)nn2)c1 [Example 116, 2-[[1-[3-(Difluoromethoxy)-4-fluoro-phenyl]triazol-4-yl]methoxy]-4-methyl-pyridine]",0.102
17,"Fc1ccc(-n2cc(COc3ccc(Cl)cn3)nn2)cc1OC(F)F [Example 117, 5-Chloro-2-[[1-[3-(difluoromethoxy)-4-fluoro-phenyl]triazol-4-yl]methoxy]pyridine]",0.073
18,"Cc1ccc(OCc2cn(-c3ccc(F)c(OC(F)F)c3)nn2)nc1 [Example 118, 2-[[1-[3-(Difluoromethoxy)-4-fluoro-phenyl]triazol-4-yl]methoxy]-5-methyl-pyridine]",0.026
19,"Fc1ccc(-n2cc(COc3ccc(C(F)(F)F)cn3)nn2)cc1OC(F)F [Example 119, 2-[[1-[3-(Difluoromethoxy)-4-fluoro-phenyl]triazol-4-yl]methoxy]-5-(trifluoromethyl)pyridine]",0.114
20,"Cc1cnc(OCc2cn(-c3ccc(C(F)(F)F)s3)nn2)nc1 [Example 120, 5-Methyl-2-((1-(5-(trifluoromethyl)thiophen-2-yl)-1H-1,2,3-triazol-4-yl)methoxy)pyrimidine]",0.005
21,Cc1cnc(OCc2nnn(-c3cccc(C(F)F)c3)c2C)nc1 [Example 149],0.952
22,"FC(F)c1cccc(-n2cc(CNc3ncc(Cl)cn3)nn2)c1 [Example 153, 5-Chloro-N-[[1-[3-(difluoromethyl)phenyl]triazol-4-yl]methyl]pyrimidin-2-amine]",0.216

row,SMILES,IC50 [µM]
1,"Cc1cnc(NCc2cn(-c3ccc(Cl)c(C(F)F)c3)nn2)nc1 [Example 154, N-[[1-[4-Chloro-3-(difluoromethyl)phenyl]triazol-4-yl]methyl]-5-methyl-pyrimidin-2-amine]",0.03
2,"Cc1cnc(OCc2cn(-c3cccc(C(F)F)c3)nn2)nc1C [Example 155, 2-[[1-[3-(Difluoromethyl)phenyl]triazol-4-yl]methoxy]-4,5-dimethyl-pyrimidine]",0.006
3,"CC(=O)c1cnc(OCc2cn(-c3ccc(F)c(C(F)F)c3)nn2)nc1 [Example 156, 1-[2-[[1-[3-(Difluoromethyl)-4-fluoro-phenyl]triazol-4-yl]methoxy]pyrimidin-5-yl]ethanone]",0.005
4,"Fc1ccc(-n2cc(COc3ccccn3)nn2)cc1C(F)(F)F [Example 158, 2-[[1-[4-Fluoro-3-(trifluoromethyl)phenyl]triazol-4-yl]methoxy]pyridine]",3.04
5,"OCc1ccnc(OCc2cn(-c3cccc(C(F)F)c3)nn2)n1 [Example 159, [2-[[1-[3-(Difluoromethyl)phenyl]triazol-4-yl]methoxy]pyrimidin-4-yl]methanol]",0.408
6,"OCc1cnc(OCc2cn(-c3cccc(C(F)F)c3)nn2)nc1 [Example 160, [2-[[1-[3-(Difluoromethyl)phenyl]triazol-4-yl]methoxy]pyrimidin-5-yl]methanol]",0.173
7,"Cc1cnc(OCc2cn(-c3cccc(C(F)F)c3)nn2)nc1N [Example 161, 2-[[1-[3-(Difluoromethyl)phenyl]triazol-4-yl]methoxy]-5-methyl-pyrimidin-4-amine]",0.055
8,"CNC(=O)c1ccnc(OCc2cn(-c3ccc(F)c(C(F)F)c3)nn2)n1 [Example 162, 2-[[1-[3-(Difluoromethyl)-4-fluoro-phenyl]triazol-4-yl]methoxy]-N-methyl-pyrimidine-4-carboxamide]",> 2.99
9,"Fc1ccc(-n2cc(COc3ncc(Cl)cn3)nn2)cc1 [Example 164, 5-Chloro-2-[[1-(4-fluorophenyl)triazol-4-yl]methoxy]pyrimidine]",0.371
10,"Fc1ccc(-n2cc(COc3ncc(N4CCC4)cn3)nn2)cc1OC(F)F [Example 165, 5-(Azetidin-1-yl)-2-[[1-[3-(difluoromethoxy)-4-fluoro-phenyl]triazol-4-yl]methoxy]pyrimidine]",0.016
11,"Fc1ccc(-n2cc(COc3nccc(N4CCC(F)(F)C4)n3)nn2)cc1OC(F)F [Example 166, 2-[[1-[3-(Difluoromethoxy)-4-fluoro-phenyl]triazol-4-yl]methoxy]-4-(3,3-difluoropyrrolidin-1-yl)pyrimidine]",0.144
12,"Nc1nc(OCc2cn(-c3ccc(F)c(OC(F)F)c3)nn2)ncc1F [Example 167, 2-((1-(3-(Difluoromethoxy)-4-fluorophenyl)-1H-1,2,3-triazol-4-yl)methoxy)-5-fluoropyrimidin-4-amine]",0.013
13,"Fc1ccc(-n2cc(COc3nccc(N4CCCC4)n3)nn2)cc1OC(F)F [Example 168, 2-[[1-[3-(Difluoromethoxy)-4-fluoro-phenyl]triazol-4-yl]methoxy]-4-pyrrolidin-1-yl-pyrimidine]",0.008
14,"Fc1ccc(-n2cc(COc3nccc(N4CCCCC4)n3)nn2)cc1OC(F)F [Example 169, 2-[[1-[3-(Difluoromethoxy)-4-fluoro-phenyl]triazol-4-yl]methoxy]-4-(1-piperidyl)pyrimidine]",0.031
15,"Fc1ccc(-n2cc(COc3nccc(N4CCOCC4)n3)nn2)cc1OC(F)F [Example 170, 4-[2-[[1-[3-(Difluoromethoxy)-4-fluoro-phenyl]triazol-4-yl]methoxy]pyrimidin-4-yl]morpholine]",0.26
16,"CNc1ccnc(OCc2cn(-c3ccc(Cl)c(OC(F)F)c3)nn2)n1 [Example 171, 2-[[1-[4-Chloro-3-(difluoromethoxy)phenyl]triazol-4-yl]methoxy]-N-methyl-pyrimidin-4-amine]",0.006
17,"COc1cnc(OCc2nnn(-c3cccc(C(F)F)c3)c2C)nc1 [Example 172, 2-[[1-[3-(Difluoromethyl)phenyl]-5-methyl-triazol-4-yl]methoxy]-5-methoxy-pyrimidine]",0.468
18,"Cc1cnc(OCc2nnn(-c3ccc(F)c(C(C)(F)F)c3)c2C)nc1 [Example 173, 2-[[1-[3-(1,1-Difluoroethyl)-4-fluoro-phenyl]-5-methyl-triazol-4-yl]methoxy]-5-methyl-pyrimidine]",0.465
19,"Cc1cnc(OCc2cn(-c3cccc(C)n3)nn2)nc1 [Example 174, 5-Methyl-2-[[1-(6-methyl-2-pyridyl)triazol-4-yl]methoxy]pyrimidine]",> 2.99
20,"Cc1cnc(OCc2cn(-c3ccnc(C)c3)nn2)nc1 [Example 175, 5-Methyl-2-[[1-(2-methyl-4-pyridyl)triazol-4-yl]methoxy]pyrimidine]",0.655
21,"Cc1cnc(OCc2cn(-c3cncc(C)c3)nn2)nc1 [Example 176, 5-Methyl-2-[[1-(5-methyl-3-pyridyl)triazol-4-yl]methoxy]pyrimidine]",0.929
